Measurements from PubChem BioAssay (NCI).
Values joined by “and” are separate entries in the source; they are usually repeats but may differ in a detail not shown here. Equal values may be shown once.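 Method: 48-hour compound exposure of cells in 96-well plates, five concentrations, linear interpolation of endpoints. GI50 is the concentration that inhibits growth by half. At the TGI there is no net growth.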

Experiments:
Assay in all cases: NCI anticancer screen, dose series, 48 h
SN12C renal = tested on: SN12C renal
TK-10 renal = tested on: TK-10 renal
M14 melanoma = tested on: M14 melanoma
NCI-H23 lung = tested on: NCI-H23 lung
SK-OV-3 ovarian = tested on: SK-OV-3 ovarian
IGROV1 ovarian = tested on: IGROV1 ovarian
UO-31 renal = tested on: UO-31 renal
HOP-92 NSCLC = tested on: HOP-92 NSCLC
NCI-H522 lung = tested on: NCI-H522 lung
OVCAR-4 ovarian = tested on: OVCAR-4 ovarian

SMILES	TGI (SN12C renal)	TGI (TK-10 renal)	TGI (M14 melanoma)	TGI (NCI-H23 lung)	TGI (SK-OV-3 ovarian)	TGI (IGROV1 ovarian)	TGI (UO-31 renal)	TGI (HOP-92 NSCLC)	TGI (NCI-H522 lung)	TGI (OVCAR-4 ovarian)	GI50 (SN12C renal)	GI50 (M14 melanoma)	GI50 (NCI-H23 lung)	GI50 (SK-OV-3 ovarian)	GI50 (IGROV1 ovarian)	GI50 (UO-31 renal)	GI50 (HOP-92 NSCLC)	GI50 (NCI-H522 lung)	GI50 (OVCAR-4 ovarian)	GI50 (TK-10 renal)
O=NNc1ccc(-c2ccccc2)cn1	> 35.1 µM	69 µM	39.2 µM	25.2 µM	> 78.8 µM	> 81.3 µM	58 µM	8.45 µM	49.3 µM	> 70.6 µM	–	–	–	–	–	–	–	–	–	–
CC(NCCN(C)C)C1CCC2C3CCc4cc(O)ccc4C3CCC12C (stereo unspecified)	4.42 µM	6.63 µM	3.09 µM	16.5 µM	15.9 µM	17.2 µM	3.76 µM	13.1 µM	10.6 µM	9.55 µM	–	–	–	–	–	–	–	–	–	–
COc1ccc(CCN2CCCn3c2nc2ccccc2c3=O)cc1	> 100 µM	> 100 µM	> 100 µM	> 83.9 µM	> 100 µM	> 100 µM	> 100 µM	> 95.6 µM	1.14 µM	> 100 µM	1.1 µM	0.0463 µM	0.232 µM	0.396 µM	0.109 µM	0.876 µM	3.33 µM	0.035 µM	0.353 µM	–
COc1ccc(-n2cc(-c3cc(OC)c(OC)c(OC)c3)nc2SCc2cccc(C#N)c2)cc1OC	> 100 µM	> 100 µM	> 100 µM	> 100 µM	> 100 µM	> 100 µM	> 100 µM	78.9 µM	> 100 µM	39.6 µM	> 100 µM	> 100 µM	> 100 µM	> 100 µM	> 100 µM	> 100 µM	27.8 µM	90 µM	2.12 µM	> 100 µM
COc1ccc(-c2cc(=O)c3c(O)c(O)c(OC)cc3o2)cc1O	> 100 µM	> 100 µM	> 100 µM	> 100 µM	> 100 µM	> 100 µM	> 100 µM	> 100 µM	> 100 µM	> 100 µM	–	–	–	–	–	–	–	–	–	–
NCC(=O)Nc1ccc(Cl)cc1C(=O)c1ccc[nH]1	> 100 µM	> 100 µM	> 100 µM	> 100 µM	> 100 µM	> 100 µM	> 100 µM	> 76.5 µM	50.1 µM	> 94.9 µM	–	–	–	–	–	–	–	–	–	–
Cc1cccc(CNc2c3ccccc3nc3ccccc23)c1	10.1 µM	12.2 µM	3.35 µM	4.22 µM	10.5 µM	6.79 µM	2.62 µM	4.57 µM	4.67 µM	5.59 µM	2.4 µM	1.57 µM	1.63 µM	2.61 µM	2.17 µM	1.19 µM	1.22 µM	1.53 µM	1.74 µM	2.83 µM
CCC/C=C/C=C/C(=O)OC1/C(=C/C(=O)OC)CC2CC(C(C)O)OC(=O)CC(O)CC3CC(OC(C)=O)C(C)(C)C(O)(CC4C/C(=C/C(=O)OC)CC(/C=C/C(C)(C)C1(O)O2)O4)O3 (stereo unspecified)	> 10.9 µM and 11 µM and > 12.5 µM	> 12.5 µM	> 11 µM	> 10.9 µM and 11 µM and > 12.5 µM	> 10.9 µM and 11 µM and > 12.5 µM	> 10.9 µM and 6.06 µM and > 12.5 µM	> 10.9 µM and 5.23 µM and > 12.5 µM	10.9 µM and 11 µM and > 12.5 µM	> 12.5 µM	> 6.88 µM and 10.1 µM and > 12.5 µM	> 10.9 µM and 7.93 µM and > 12.5 µM	–	> 12.5 µM	> 10.9 µM and 8.51 µM and > 12.5 µM	> 10.9 µM and 5.09 µM and > 12.5 µM	> 10.9 µM and 2.48 µM and > 12.5 µM	7.79 µM and 5.61 µM and 4.84 µM	> 11 µM	> 6.88 µM and 3.48 µM and > 12.5 µM	> 11 µM
NC(CSC(c1ccccc1)(c1ccccc1)c1ccccc1)C(=O)O (stereo unspecified)	23.8 µM and 68.3 µM and > 100 µM	83.5 µM	6.01 µM and 16.2 µM and 27.5 µM	7.15 µM and 51.7 µM	14.8 µM and > 100 µM	84.8 µM and > 100 µM	107 µM and > 100 µM	–	2.2 µM and 7.13 µM and 4.28 µM	61 µM and > 100 µM	2.99 µM and 0.877 µM	0.426 µM and 0.389 µM	–	0.425 µM	3.98 µM and 4.69 µM	9.89 µM	2.17 µM and 10.1 µM	0.524 µM and 0.413 µM	11.6 µM and 11.2 µM	6.22 µM
Nc1nc(N)nc(CCCCc2nc(N)nc(N)n2)n1	> 100 µM	> 100 µM	> 100 µM	> 100 µM	> 100 µM	> 100 µM	> 100 µM	> 100 µM	> 100 µM	> 100 µM	–	–	–	–	–	–	–	–	–	–
CC(=O)OC1(Sc2ccccc2)CC2[C@H]3COC(C)(C)O[C@H]3CC[C@@]2(C)CC1=O (stereo partly specified)	> 100 µM	> 100 µM	> 100 µM	> 100 µM	95.7 µM	> 100 µM	> 100 µM	86.1 µM	79.8 µM	> 100 µM	–	–	–	–	–	–	–	–	–	–
CC1=CC(=O)NP(=O)(Oc2ccc(Cl)cc2)N1 (stereo unspecified)	> 100 µM	> 100 µM	> 100 µM	> 100 µM	> 100 µM	> 100 µM	> 100 µM	> 100 µM	> 100 µM	> 100 µM	–	–	–	–	–	–	–	–	–	–
